Test results: ChEMBL document CHEMBL4732061, “Synthesis, binding, and functional properties of tetrahydroisoquinolino-2-alkyl phenones as selective σR/TMEM97 ligands” (Eur J Med Chem, 2021)
Calls of active or inactive are those of the source. The rule behind the calls is not given here.

What was measured:
[1] = target: T1, Sigma intracellular receptor 2 (Rattus norvegicus, UniProt Q5U3Y7); assay: Displacement of [125I]-RHM-4 from sigma 2 receptor in rat liver membranes after 120 mins by microbeta scintillation counting method; assay type: cell membranes, Membrane
T1 sequence (Q5U3Y7 whole entry): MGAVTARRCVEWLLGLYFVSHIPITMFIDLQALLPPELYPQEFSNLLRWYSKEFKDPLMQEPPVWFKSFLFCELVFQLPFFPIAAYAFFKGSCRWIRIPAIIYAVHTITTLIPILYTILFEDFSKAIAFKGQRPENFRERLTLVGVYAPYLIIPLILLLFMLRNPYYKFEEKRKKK

[2] = target: Sigma non-opioid intracellular receptor 1 (Cavia porcellus, UniProt Q60492); assay: Displacement of [3H](+)-pentazocine from sigma 1 receptor in guinea pig brain membranes after 120 mins by microbeta scintillation counting method; assay type: cell membranes, Membrane
Chain of Sigma non-opioid intracellular receptor 1 (Q60492 whole entry): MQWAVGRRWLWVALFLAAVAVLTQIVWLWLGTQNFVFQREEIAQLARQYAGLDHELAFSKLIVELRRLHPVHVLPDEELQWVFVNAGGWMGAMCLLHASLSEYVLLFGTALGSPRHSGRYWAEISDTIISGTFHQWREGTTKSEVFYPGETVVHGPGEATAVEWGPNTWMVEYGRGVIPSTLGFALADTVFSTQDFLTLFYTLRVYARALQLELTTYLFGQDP

[3] = test system: MCF7; assay: Cytotoxicity against human MCF7 cells assessed as reduction in cell viability incubated for 24 to 48 hrs in presence of cisplatin by CCK-8 assay; assay type: functional, cell-based; settings: time 24-48 hrs
[4] = test system: MCF-10A; assay: Cytotoxicity against human MCF-10A cells assessed as reduction in cell viability incubated for 48 hrs by CCK-8 assay; assay type: cell-based
[5] = test system: MDA-MB-231; assay: Cytotoxicity against human MDA-MB-231 cells assessed as reduction in cell viability incubated for 24 to 48 hrs in presence of cisplatin by CCK-8 assay; assay type: functional, cell-based; settings: time 24-48 hrs
[6] = test system: MCF7; assay: Cytotoxicity against human MCF7 cells assessed as reduction in cell viability incubated for 24 hrs by CCK-8 assay; assay type: functional, cell-based
[7] = test system: MCF7; assay: Cytotoxicity against human MCF7 cells assessed as reduction in cell viability incubated for 48 hrs by CCK-8 assay; assay type: functional, cell-based; settings: MCF7, 48 h
[8] = test system: HepG2; assay: Cytotoxicity against human HepG2 cells assessed as reduction in cell viability incubated for 24 to 48 hrs in presence of cisplatin by CCK-8 assay; assay type: functional, cell-based; settings: time 24-48 hrs
[9] = test system: KYSE-140; assay: Cytotoxicity against human KYSE-140 cells assessed as reduction in cell viability incubated for 24 to 48 hrs in presence of cisplatin by CCK-8 assay; assay type: functional, cell-based; settings: time 24-48 hrs
[10] = test system: MCF-10A; assay: Cytotoxicity against human MCF-10A cells assessed as reduction in cell viability incubated for 24 hrs by CCK-8 assay; assay type: cell-based
[11] = test system: MCF7; assay: Cytotoxicity against human MCF7 cells assessed as reduction in cell viability incubated for 24 to 48 hrs by CCK-8 assay; assay type: functional, cell-based
[12] = target: Sigma intracellular receptor 2 (Homo sapiens) (UniProt Q5BJF2); assay: Antagonist activity at sigma 2 receptor in human MCF7 cells assessed as reduction in intracellular calcium release at 30 uM incubated for 3 hrs by Fluo-3 AM dye based confocal laser scanning microscopy; assay type: cell-based; settings: filed as antagonist
Chain of Sigma intracellular receptor 2 (Homo sapiens) (Q5BJF2 whole entry): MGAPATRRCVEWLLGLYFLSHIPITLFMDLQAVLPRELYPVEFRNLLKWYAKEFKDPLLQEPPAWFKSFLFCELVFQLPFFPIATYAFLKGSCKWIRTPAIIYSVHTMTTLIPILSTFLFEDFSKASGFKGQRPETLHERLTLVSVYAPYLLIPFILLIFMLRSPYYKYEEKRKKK

[13] = test system: MCF-10A; assay: Cytotoxicity against human MCF-10A cells assessed as reduction in cell viability at 1 to 100 uM incubated for 24 to 48 hrs by CCK-8 assay; assay type: cell-based; settings: dose lower 1 µM, time lower 24 hrs, dose upper 100 µM, time upper 48 hrs
[14] = test system: MCF7; assay: Cytotoxicity against human MCF7 cells assessed as reduction in cell viability at 1 to 100 uM incubated for 24 to 48 hrs by CCK-8 assay; assay type: functional, cell-based; settings: dose 1-100 µM, time 24-48 hrs
[15] = test system: MCF-10A; assay: Cytotoxicity against human MCF-10A cells assessed as reduction in cell viability incubated for 24 to 48 hrs by CCK-8 assay; assay type: cell-based
[16] = Selectivity ratio of Ki for displacement of [3H](+)-pentazocine from sigma 1 receptor in guinea pig brain membranes to Ki for displacement of [125I]-RHM-4 from sigma2 receptor in rat liver membranes; assay type: cell membranes
[17] = target: Sigma intracellular receptor 2 (Homo sapiens) (UniProt Q5BJF2); assay: Agonist activity at sigma 2 receptor in human MCF7 cells assessed as stimulation of intracellular calcium release at 10 uM incubated for 3 hrs by Fluo-3 AM dye based confocal laser scanning microscopy; assay type: cell-based; settings: filed as agonist
[18] = Homo sapiens, MCF7, 24 h, read-out: IC50
[19] = Homo sapiens, MCF-10A, 24 h, read-out: IC50

Structure (SMILES): COc1cc2c(c(OC)c1OC)CN(CCCC(=O)c1c(C)c(OC)c(OC)c(OC)c1OC)CC2
- Ki [1]: > 1 µM
- Ki [2]: > 1 µM

Structure (SMILES): COc1cc2c(cc1OC)CN(CCC(=O)c1c(C)c(OC)c(OC)c(OC)c1OC)CC2
- Activity [3]: Active
- IC50 [4]: 9.77 µM
- Activity [5]: Active
- IC50 [6, 18]: 11.5 µM
- Ki [1]: 0.956 µM
- IC50 [7]: 8.09 µM
- Activity [8]: Active
- Activity [9]: Active
- IC50 [10, 19]: 11.9 µM
- Ki [2]: 3.19 µM

Structure (SMILES): COc1cc2c(cc1OC)CN(CCCCCC(=O)c1c(C)c(OC)c(OC)c(OC)c1OC)CC2
- IC50 [11]: > 100 µM
- Activity [12]: Active
- Ki [1]: 0.00038 µM
- Activity [13]: Non-Toxic
- Activity [14]: inactive
- Ki [2]: > 1 µM
- IC50 [15]: > 100 µM

Structure (SMILES): COc1cc2c(c(OC)c1OC)CN(CCCCC(=O)c1c(C)c(OC)c(OC)c(OC)c1OC)CC2
- Ratio Ki [16]: > 44
- Ki [1]: 0.0224 µM
- Ki [2]: > 1 µM

Structure (SMILES): COc1cc2c(c(OC)c1OC)CCN(CCCC(=O)c1c(C)c(OC)c(OC)c(OC)c1OC)C2
- Ratio Ki [16]: > 24
- Ki [1]: 0.0418 µM
- Ki [2]: > 1 µM

Structure (SMILES): COc1cc2c(c(OC)c1OC)CCN(CCCCCC(=O)c1c(C)c(OC)c(OC)c(OC)c1OC)C2
- Ratio Ki [16]: > 50
- Ki [1]: 0.0197 µM
- Ki [2]: > 1 µM

Structure (SMILES): COc1cc2c(c(OC)c1OC)CCN(CCC(=O)c1c(C)c(OC)c(OC)c(OC)c1OC)C2
- Ki [1]: 11.5 µM
- Ki [2]: > 1 µM

Structure (SMILES): COc1cc2c(c(OC)c1OC)CN(CCCCCCC(=O)c1c(C)c(OC)c(OC)c(OC)c1OC)CC2
- IC50 [4]: 23.5 µM
- IC50 ([6]; mcf7): Not Active
- Ki [1]: > 1 µM
- IC50 [7]: 39.7 µM
- IC50 ([10]; mcf-10a): Not Active
- Ki [2]: > 1 µM

Structure (SMILES): COc1cc2c(cc1OC)CN(CCCCCCC(=O)c1c(C)c(OC)c(OC)c(OC)c1OC)CC2
- IC50 [4]: 32.3 µM
- Activity [12]: Active
- IC50 [6, 18]: 70.7 µM
- Ki [1]: 0.00133 µM
- IC50 [7]: 51.1 µM
- IC50 [10, 19]: 54.2 µM
- Ki [2]: > 1 µM

Structure (SMILES): COc1cc2c(c(OC)c1OC)CCN(CCCCC(=O)c1c(C)c(OC)c(OC)c(OC)c1OC)C2
- Ratio Ki [16]: > 29
- Ki [1]: 0.0342 µM
- Ki [2]: > 1 µM

Structure (SMILES): COc1cc2c(c(OC)c1OC)CN(CCC(=O)c1c(C)c(OC)c(OC)c(OC)c1OC)CC2
- IC50 [4]: 27.4 µM
- IC50 [6, 18]: 25.5 µM
- Ki [1]: 3.18 µM
- IC50 [7]: 19.7 µM
- IC50 [10, 19]: 45.9 µM
- Ki [2]: > 1 µM

Structure (SMILES): Fc1ccc(-n2cc(CCCCN3CCC4(CC3)OCc3ccccc34)c3ccccc32)cc1
- Activity [17]: Active

Structure (SMILES): COc1cc2c(c(OC)c1OC)CCN(CCCCCCC(=O)c1c(C)c(OC)c(OC)c(OC)c1OC)C2
- Ratio Ki [16]: > 24
- Ki [1]: 0.04 µM
- Ki [2]: > 1 µM

Structure (SMILES): COc1cc2c(cc1OC)CN(CCCC(=O)c1c(C)c(OC)c(OC)c(OC)c1OC)CC2
- IC50 [11]: > 100 µM
- Activity [12]: Active
- Ki [1]: 0.0051 µM
- Activity [13]: Non-Toxic
- Activity [14]: inactive
- Ki [2]: > 1 µM
- IC50 [15]: > 100 µM

Structure (SMILES): COc1cc2c(cc1OC)CN(CCCCC(=O)c1c(C)c(OC)c(OC)c(OC)c1OC)CC2
- IC50 [11]: > 100 µM
- Activity [12]: Active
- Ki [1]: 0.003 µM
- Activity [13]: Non-Toxic
- Activity [14]: inactive
- Ki [2]: 0.16 µM
- IC50 [15]: > 100 µM

Structure (SMILES): COc1cc2c(c(OC)c1OC)CN(CCCCCC(=O)c1c(C)c(OC)c(OC)c(OC)c1OC)CC2
- Ratio Ki [16]: > 79
- Ki [1]: 0.0126 µM
- Ki [2]: > 1 µM

Structure (SMILES): COc1cc2c(cc1OC)CN(CCCCNC(=O)c1cc(C)ccc1OC)CC2
- Activity [12]: Active
